Data taken from patent US10376577B2, “Refined product obtained from rice hull and preparation process and use thereof” (China Medical University, priority 2014, dated 2019).

System: CT26 cells
Test: Synergistic anticancer effect of refined product and 5-FU on colon carcinoma cells
Type: in vivo, mouse
Details: BALB/c mice with subcutaneous CT26, end of 3rd week, treatments per Table 8, mean ± S.D.
Excerpt: The male BALB/c mice were randomly divided into the following groups (n=8 for each group): a normal control group, a pathological control group, a 5-FU group, and a synergy group. 1×10^6 CT26 cells were subcutaneously injected into the leg of each mouse in the pathological control group, the 5-FU group, and the synergy group. The mice in the normal control group received no CT26 cells.
After the injection of CT26 cells, the mice in the 5-FU group, the synergy group, and the pathological control group were subjected to the treatments shown in Table 8 until the end of the 3rd week after the injection of CT26 cells. The mice in the normal control group received no treatment.
At the end of the 3rd week after the injection of CT26 cells, the mice in each group were anesthetized using CO2, and blood was collected from the celiac vein. The blood collected was subjected to total white blood cell counting using an automated hematology analyzer (Sysmex, KX-21 N). Besides, tumors were collected and weighted.

Number of total white blood cells (pathological control 6.59 ± 1.46): 4.46 ± 0.77
SMILES: O=c1[nH]cc(F)c(=O)[nH]1 [5-FU, 5-fluorouracil]
Tumor weight (pathological control 4.10 ± 0.92): 3.19 ± 1.47
